# Data: patent US6534049B2, “Synthetic soil-extract materials and medicaments for human immunodeficiency viruses based thereon” (priority 1997, dated 2003)
# Assays:
# HeLa CD4 LTR β-gal cells [1] = assay: HIV attachment inhibition assay (β-galactosidase chemiluminescence)
# HeLa CD4 LTR β-gal cells [2] = assay: Compound toxicity in HeLa CD4 LTR β-gal cells (XTT)
# gp120/CD4 interaction [3] = biological target: T1, gp120/CD4 interaction (Human immunodeficiency virus type 1 group M subtype B, UniProt P03375)
# gp120/CD4 interaction [4] = biological target: T1, gp120/CD4 interaction; assay: cell-based
structure (smiles),measurement,setting,value
COc1cc(-c2ccc(/N=N/c3ccc4c(S(=O)(=O)O)cc(S(=O)(=O)O)c(N)c4c3O)c(OC)c2)ccc1/N=N/c1ccc2c(S(=O)(=O)O)cc(S(=O)(=O)O)c(N)c2c1O [Chicago Sky Blue],IC50,"HeLa CD4 LTR β-gal cells [1]; Human immunodeficiency virus 1, HeLa",0.53 µg/mL
same,TI (=IC50/TC50),HeLa CD4 LTR β-gal cells [1]; general virus attachment,>18
same,TC50,"HeLa CD4 LTR β-gal cells [2]; Table 10, XTT sister plate",>10 µg/mL
same,TC50,HeLa CD4 LTR β-gal cells [2]; Table 11,>10 µg/mL
same,TI (=IC50/TC50),gp120/CD4 interaction [3],>5
same,IC50,gp120/CD4 interaction [4],2280 nM
